Patent publication US8609669B2, “Potassium channel modulators” (AbbVie Inc., priority 2010, dated 2013)

Target: T1, KCNQ 2/3 channels (HEK293 cells stably expressing human KCNQ2 and KCNQ3 subunits) (Homo sapiens, UniProt O43525+O43526)
T1 construct: expressed in transfected cells; host or cells: HEK293
Assay: KCNQ2/3 channel activation, thallium flux FLIPR assay (BTC-AM dye)
Type: cell-based
Details: for Emax: HEK293, maximum response relative to response of retigabine at 10 μM (set at 100%), read-out: Max. %; for EC50: HEK293 cells expressing human KCNQ2 and KCNQ3, FLIPR thallium flux
Procedure: The following example describes the assay that can be used to identify compounds that activate KCNQ 2/3 channels.
HEK293 cells stably expressing human KCNQ2 and KCNQ3 subunits were seeded in 96-well, black-walled, clear-bottomed, poly-D-lysine coated plates (BD Biosciences, Bedford, Mass.) at a density of 1×10^5 cells per well 24 hours before the assay. On the assay day, BTC-AM dye (Invitrogen, Carlsbad, Calif.) was loaded into the cells by replacing the cell culture medium with 100 μL/well of 4 μM dye in DPBS. Dye loading was allowed to proceed for 2 hours at room temperature and then cells were washed twice in 100 μL/well of assay buffer (in mM: 10 HEPES pH 7.3, 5 glucose, 140 Na-gluconate, 2.5 K-gluconate, 3.6 Ca-gluconate, 2 MgSO4, 0.1 Ouabain) to remove unloaded dye. Cells were incubated in 50 μL of assay buffer before loading onto a FLIPR system (Molecular Devices, Sunnyvale, Calif.). Various concentrations of compounds to be assayed were added to the cells in 50 μL of assay buffer and incubated for 4 minutes. The fluorescence signal was initiated by adding 100 μL of assay buffer containing 6 mM TlNO3 and 10 mM K2SO4. Fluors were excited using the 488-nm line of an argon laser and emission was filtered using a 540±30 nm bandpass filter. Fluorescent signals were recorded for 3 minutes. Responses over baseline values were plotted versus concentrations of test compounds to obtain an EC50 value. The maximum response for each test compound was determined relative to the response produced at 10 μM by retigabine. The maximum response of retigabine at 10 μM was set at 100%.

| Structure (SMILES) | Emax [%] | EC50 [nM] |
| --- | --- | --- |
| CC(C)(C)CC(=O)Nc1nn2cccnc2c1C#Cc1ccc(OC(F)(F)F)cc1 [Example 156, 3,3-dimethyl-N-(3-{[4-(trifluoromethoxy)phenyl]ethynyl}pyrazolo[1,5-a]pyrimidin-2-yl)butanamide] | 40 | 1000 to 10000 |
| CC(C)(C)c1c(NC(=O)C[C@@H]2CC[C@H]3C[C@@H]2C3(C)C)nn2cccnc12 [Example 171, N-(3-tert-butylpyrazolo[1,5-a]pyrimidin-2-yl)-2-[(1S,2S,5S)-6,6-dimethylbicyclo[3.1.1]hept-2-yl]acetamide] | 138 | < 100 |
| Cc1cnc2c(-c3ccc(C(F)(F)F)c(F)c3)c(NC(=O)CC3CCCC3)nn2c1 [Example 87, 2-cyclopentyl-N-{3-[3-fluoro-4-(trifluoromethyl)phenyl]-6-methylpyrazolo[1,5-a]pyrimidin-2-yl}acetamide] | 239 | 100 to 500 |
| COc1cccc(CC(=O)Nc2nn3c(C)ccnc3c2-c2ccc(Cl)cc2)c1 [Example 41, N-[3-(4-chlorophenyl)-7-methylpyrazolo[1,5-a]pyrimidin-2-yl]-2-(3-methoxyphenyl)acetamide] | 136 | 1000 to 10000 |
| Cc1cnc2c(-c3ccc(C)c(Cl)c3)c(NC(=O)Cc3ccc(F)cc3)nn2c1 [Example 72, N-[3-(3-chloro-4-methylphenyl)-6-methylpyrazolo[1,5-a]pyrimidin-2-yl]-2-(4-fluorophenyl)acetamide] | 247 | 100 to 500 |
| CC(C)(C)c1c(NC(=O)CC(C)(C)c2ccccc2)nn2cccnc12 [Example 126, N-(3-tert-butylpyrazolo[1,5-a]pyrimidin-2-yl)-3-methyl-3-phenylbutanamide] | 133 | 100 to 500 |
| Cc1cnc2c(-c3ccc(F)cc3)c(NC(=O)Cc3ccccc3)nn2c1 [Example 25, N-[3-(4-fluorophenyl)-6-methylpyrazolo[1,5-a]pyrimidin-2-yl]-2-phenylacetamide] | 171 | 100 to 500 |
| O=C(Cc1ccc(F)cc1)Nc1nn2cccnc2c1-c1ccc(OC(F)(F)F)cc1 [Example 140, 2-(4-fluorophenyl)-N-{3-[4-(trifluoromethoxy)phenyl]pyrazolo[1,5-a]pyrimidin-2-yl}acetamide] | 66 | > 10000 |
| CC(C)(C)c1c(NC(=O)Cc2ccc(Cl)cc2)nn2cccnc12 [Example 152, N-(3-tert-butylpyrazolo[1,5-a]pyrimidin-2-yl)-2-(4-chlorophenyl)acetamide] | 191 | 100 to 500 |
| Cc1cc(C)n2nc(NC(=O)CC3CCCCC3)c(-c3ccc(F)c(C)c3)c2n1 [Example 34, 2-cyclohexyl-N-[3-(4-fluoro-3-methylphenyl)-5,7-dimethylpyrazolo[1,5-a]pyrimidin-2-yl]acetamide] | 166 | < 100 |
| O=C(CC1CCCC1)Nc1nn2cccnc2c1-c1cccc(C(F)(F)F)c1 [Example 64, 2-cyclopentyl-N-{3-[3-(trifluoromethyl)phenyl]pyrazolo[1,5-a]pyrimidin-2-yl}acetamide] | 113 | > 10000 |
| CC(C)(C)c1c(NC(=O)CC2CCC3CC23)nn2cccnc12 (stereo not drawn) [Example 175, 2-[(cis)-bicyclo[3.1.0]hex-2-yl]-N-(3-tert-butylpyrazolo[1,5-a]pyrimidin-2-yl)acetamide] | 177 | 1000 to 10000 |
| CC(C)(C)Cc1c(NC(=O)CCC2CCCCC2)nn2cccnc12 [Example 11, 3-cyclohexyl-N-[3-(2,2-dimethylpropyl)pyrazolo[1,5-a]pyrimidin-2-yl]propanamide] | 194 | < 100 |
| O=C(CC12CC3CC(CC(C3)C1)C2)Nc1nn2cccnc2c1-c1ccc(OC(F)(F)F)cc1 [Example 142, 2-(adamantan-1-yl)-N-{3-[4-(trifluoromethoxy)phenyl]pyrazolo[1,5-a]pyrimidin-2-yl}acetamide] | 152 | 1000 to 10000 |
| O=C(CCC1CCCCC1)Nc1nn2cccnc2c1-c1ccc(F)cc1 [Example 24, 3-cyclohexyl-N-[3-(4-fluorophenyl)pyrazolo[1,5-a]pyrimidin-2-yl]propanamide] | 137 | 100 to 500 |
| Cc1cc(C)n2nc(NC(=O)COC3CCCC3)c(-c3ccc(Cl)c(C)c3)c2n1 [Example 134, N-[3-(4-chloro-3-methylphenyl)-5,7-dimethylpyrazolo[1,5-a]pyrimidin-2-yl]-2-(cyclopentyloxy)acetamide] | 11 | > 10000 |

| Structure (SMILES) | Emax [%] | EC50 [nM] |
| --- | --- | --- |
| Cc1cnc2c(C(C)(C)C)c(NC(=O)CC3CCCCC3)nn2c1 [Example 180, N-(3-tert-butyl-6-methylpyrazolo[1,5-a]pyrimidin-2-yl)-2-cyclohexylacetamide] | 155 | 100 to 500 |
| COC(=O)c1c(NC(=O)CCC2CCCC2)nn2cccnc12 [Example 125, methyl 2-[(3-cyclopentylpropanoyl)amino]pyrazolo[1,5-a]pyrimidine-3-carboxylate] | 8 | > 10000 |
| O=C(Cc1ccccc1O)Nc1nn2cccnc2c1-c1ccc(Cl)cc1 [Example 104, N-[3-(4-chlorophenyl)pyrazolo[1,5-a]pyrimidin-2-yl]-2-(2-hydroxyphenyl)acetamide] | 10 | > 10000 |
| COc1ncc(-c2c(NC(=O)Cc3ccc(F)cc3)nn3cccnc23)cn1 [Example 181, 2-(4-fluorophenyl)-N-[3-(2-methoxypyrimidin-5-yl)pyrazolo[1,5-a]pyrimidin-2-yl]acetamide] | 7 | > 10000 |
| CC(C)(C)c1c(NC(=O)Cc2ccc(F)cc2)nn2cccnc12 [Example 123, N-(3-tert-butylpyrazolo[1,5-a]pyrimidin-2-yl)-2-(4-fluorophenyl)acetamide] | 142 | 100 to 500 |
| O=C(CCC1CCCC1)Nc1nn2cccnc2c1-c1cccc(Cl)c1 [Example 56, N-[3-(3-chlorophenyl)pyrazolo[1,5-a]pyrimidin-2-yl]-3-cyclopentylpropanamide] | 98 | 100 to 500 |
| CC(C)(C)c1c(NC(=O)CC2(C)CCc3ccccc32)nn2cccnc12 (racemic) [Example 131, (±)-N-(3-tert-butylpyrazolo[1,5-a]pyrimidin-2-yl)-2-(1-methyl-2,3-dihydro-1H-inden-1-yl)acetamide] | 97 | 1000 to 10000 |
| Cc1cnc2c(-c3ccc(F)c(C)c3)c(NC(=O)CC3CC4CCC3C4)nn2c1 (racemic) [Example 150, (±)-exo-2-bicyclo[2.2.1]hept-2-yl-N-[3-(4-fluoro-3-methylphenyl)-6-methylpyrazolo[1,5-a]pyrimidin-2-yl]acetamide] | 198 | < 100 |
| Cc1cc(C)n2nc(NC(=O)CCC3CCCC3)c(C(C)C)c2n1 [Example 122, 3-cyclopentyl-N-(3-isopropyl-5,7-dimethylpyrazolo[1,5-a]pyrimidin-2-yl)propanamide] | 155 | < 100 |
| Cc1cnc2c(C(C)(C)C)c(NC(=O)CCC3CCCC3)nn2c1 [Example 179, N-(3-tert-butyl-6-methylpyrazolo[1,5-a]pyrimidin-2-yl)-3-cyclopentylpropanamide] | 151 | < 100 |
| Cc1cnc2c(-c3ccc(F)c(C)c3)c(NC(=O)CS(=O)(=O)C3CCCC3)nn2c1 [Example 174, 2-(cyclopentylsulfonyl)-N-[3-(4-fluoro-3-methylphenyl)-6-methylpyrazolo[1,5-a]pyrimidin-2-yl]acetamide] | 67 | > 10000 |
| CC(C)(C)c1c(NC(=O)CC2CCCC2)nn2cccnc12 [Example 154, N-(3-tert-butylpyrazolo[1,5-a]pyrimidin-2-yl)-2-cyclopentylacetamide] | 188 | 1000 to 10000 |
| CC(C)(C)OC(=O)Nc1nn2cccnc2c1/C=C/C1CCCCC1 [Example 177, tert-butyl {3-[(E)-2-cyclohexylvinyl]pyrazolo[1,5-a]pyrimidin-2-yl}carbamate] | 51 | 1000 to 10000 |
| Cc1cnc2c(-c3cccc(C(F)(F)F)c3)c(NC(=O)CC(C)(C)C)nn2c1 [Example 63, 3,3-dimethyl-N-{6-methyl-3-[3-(trifluoromethyl)phenyl]pyrazolo[1,5-a]pyrimidin-2-yl}butanamide] | 125 | 100 to 500 |
| Cc1cnc2c(-c3ccc(F)c(C)c3)c(NC(=O)CC34CC5CC(CC(C5)C3)C4)nn2c1 [Example 151, 2-(adamantan-1-yl)-N-[3-(4-fluoro-3-methylphenyl)-6-methylpyrazolo[1,5-a]pyrimidin-2-yl]acetamide] | 179 | < 100 |
| CC(C)(C)OC(=O)Nc1nn2cccnc2c1-c1ccc(OC(F)(F)F)cc1 [Example 148, tert-butyl {3-[4-(trifluoromethoxy)phenyl]pyrazolo[1,5-a]pyrimidin-2-yl}carbamate] | 20 | > 10000 |
